Measurements published in article PMC11392244, “Characterization of a unique catechol-O-methyltransferase as a molecular drug target in parasitic filarial nematodes” (PLOS Neglected Tropical Diseases, 2024).
“And” between values parts separate entries of the source, which are not always exact repeats. Equal entries are not always repeated. Where two headings read alike, the source gives them in different places.

Legend:
[1] = system: DiMT protein; format: biochemical, Dirofilaria immitis
[2] = system: D. immitis microfilariae; assay: In vitro efficacy against live D. immitis microfilariae (motility, completely immotile %); format: cell-based, Dirofilaria immitis; details: for Completely Immotile Microfilariae (%): single replicate

Structure (SMILES): CO[C@@H]1[C@@H](OC(=O)c2ccc(C)[nH]2)[C@@H](O)[C@H](Oc2ccc3c(O)c(NC(=O)c4ccc(O)c(CC=C(C)C)c4)c(=O)oc3c2Cl)OC1(C)C [NSC227186]
- Mean Percent Inhibition ([1]; 10 µM): 25.0% and 23.9% and 30.2%
- Mean Percent Inhibition, Average ([1]; 10 µM): 26.4%
- Mean Percent Inhibition ([1]; 40 µM): 40.1% and 37.1% and 38.3%
- Mean Percent Inhibition, Average ([1]; 40 µM): 38.5%
- Mean Percent Inhibition ([1]; 70 µM): 40.5% and 43.1% and 39.6%
- Mean Percent Inhibition, Average ([1]; 70 µM): 41.1%
- Mean Percent Inhibition ([1]; 100 µM): 44.8% and 43.5% and 45.8%
- Mean Percent Inhibition, Average ([1]; 100 µM): 44.7%
- Mean Percent Inhibition ([1]; 130 µM): 46.6% and 49.3% and 48.1%
- Mean Percent Inhibition, Average ([1]; 130 µM): 48.0%
- Mean Percent Inhibition ([1]; 160 µM): 50.6% and 48.4% and 57.2%
- Mean Percent Inhibition, Average ([1]; 160 µM): 52.0%

Structure (SMILES): CO[C@H]1/C=C/O[C@@]2(C)Oc3c(C)c(O)c4c(O)c(cc(O)c4c3C2=O)NC(=O)/C(C)=C\C=C\[C@H](C)[C@H](O)[C@@H](C)[C@@H](O)[C@@H](C)[C@H](OC(C)=O)[C@@H]1C [NSC133100]
- Mean Percent Inhibition ([1]; 100 µM): 24.8% and 27.0% and 28.5%
- Mean Percent Inhibition, Average ([1]; 100 µM): 26.8%
- Mean Percent Inhibition ([1]; 200 µM): 32.0% and 34.7% and 35.8%
- Mean Percent Inhibition, Average ([1]; 200 µM): 34.1%
- Mean Percent Inhibition ([1]; 300 µM): 33.9% and 41.0% and 42.1%
- Mean Percent Inhibition, Average ([1]; 300 µM): 39.0%
- Mean Percent Inhibition ([1]; 400 µM): 40.4% and 46.0%
- Mean Percent Inhibition, Average ([1]; 400 µM): 44.1%
- Mean Percent Inhibition ([1]; 500 µM): 51.5% and 54.8% and 55.7%
- Mean Percent Inhibition, Average ([1]; 500 µM): 54.0%
- IC50 ([1]; read-out: IC 50 (μM ± SEM)): 496.9 ± 2.7 µM
- Mean completely Immotile (%) ([2]; 15 µM, 0 h): 0%
- Completely Immotile Microfilariae (%) ([2]; 15 µM, 0 h): 0%
- Mean completely Immotile (%) ([2]; 15 µM, 24 h): 1%
- Completely Immotile Microfilariae (%) ([2]; 15 µM, 24 h): 0% and 1% and 2%
- Mean completely Immotile (%) ([2]; 15 µM, 48 h): 2.67%
- Completely Immotile Microfilariae (%) ([2]; 15 µM, 48 h): 1% and 3% and 4%
- Mean completely Immotile (%) ([2]; 15 µM, 72 h): 4.67%
- Completely Immotile Microfilariae (%) ([2]; 15 µM, 72 h): 3% and 5% and 6%
- Mean completely Immotile (%) ([2]; 15 µM, 96 h): 6.67%
- Completely Immotile Microfilariae (%) ([2]; 15 µM, 96 h): 5% and 7% and 8%
- Mean completely Immotile (%) ([2]; 15 µM, 120 h): 9.67%
- Completely Immotile Microfilariae (%) ([2]; 15 µM, 120 h): 7% and 10% and 12%
- Mean completely Immotile (%) ([2]; 25 µM, 0 h): 0%
- Completely Immotile Microfilariae (%) ([2]; 25 µM, 0 h): 0%
- Mean completely Immotile (%) ([2]; 25 µM, 24 h): 3%
- Completely Immotile Microfilariae (%) ([2]; 25 µM, 24 h): 2% and 3% and 4%
- Mean completely Immotile (%) ([2]; 25 µM, 48 h): 4.67%
- Completely Immotile Microfilariae (%) ([2]; 25 µM, 48 h): 3% and 5% and 6%
- Mean completely Immotile (%) ([2]; 25 µM, 72 h): 6.67%
- Completely Immotile Microfilariae (%) ([2]; 25 µM, 72 h): 5% and 7% and 8%
- Mean completely Immotile (%) ([2]; 25 µM, 96 h): 9.33%
- Completely Immotile Microfilariae (%) ([2]; 25 µM, 96 h): 7% and 10% and 11%
- Mean completely Immotile (%) ([2]; 25 µM, 120 h): 13.67%
- Completely Immotile Microfilariae (%) ([2]; 25 µM, 120 h): 10% and 16% and 15%
- Mean completely Immotile (%) ([2]; 50 µM, 0 h): 0%
- Completely Immotile Microfilariae (%) ([2]; 50 µM, 0 h): 0%
- Mean completely Immotile (%) ([2]; 50 µM, 24 h): 5%
- Completely Immotile Microfilariae (%) ([2]; 50 µM, 24 h): 4% and 5% and 6%
- Mean completely Immotile (%) ([2]; 50 µM, 48 h): 8%
- Completely Immotile Microfilariae (%) ([2]; 50 µM, 48 h): 7% and 8% and 9%
- Mean completely Immotile (%) ([2]; 50 µM, 72 h): 10.67%
- Completely Immotile Microfilariae (%) ([2]; 50 µM, 72 h): 9% and 11% and 12%
- Mean completely Immotile (%) ([2]; 50 µM, 96 h): 12.67%
- Completely Immotile Microfilariae (%) ([2]; 50 µM, 96 h): 11% and 13% and 14%
- Mean completely Immotile (%) ([2]; 50 µM, 120 h): 17%
- Completely Immotile Microfilariae (%) ([2]; 50 µM, 120 h): 14% and 19% and 18%
- Mean completely Immotile (%) ([2]; 75 µM, 0 h): 0%
- Completely Immotile Microfilariae (%) ([2]; 75 µM, 0 h): 0%
- Mean completely Immotile (%) ([2]; 75 µM, 24 h): 6.33%
- Completely Immotile Microfilariae (%) ([2]; 75 µM, 24 h): 5% and 6% and 8%
- Mean completely Immotile (%) ([2]; 75 µM, 48 h): 10%
- Completely Immotile Microfilariae (%) ([2]; 75 µM, 48 h): 9% and 10% and 11%
- Mean completely Immotile (%) ([2]; 75 µM, 72 h): 13%
- Completely Immotile Microfilariae (%) ([2]; 75 µM, 72 h): 12% and 13% and 14%
- Mean completely Immotile (%) ([2]; 75 µM, 96 h): 15.67%
- Completely Immotile Microfilariae (%) ([2]; 75 µM, 96 h): 14% and 16% and 17%
- Mean completely Immotile (%) ([2]; 75 µM, 120 h): 20.67%
- Completely Immotile Microfilariae (%) ([2]; 75 µM, 120 h): 17% and 23% and 22%
- effect on microfilariae ([2]; up to 120 h of culture): insignificant effect
